The source of these data is patent publication US5139945A, “Thermostable alginate lyase from Bacillus steraothermophilus” (Novo Industri A/S, priority 1988, dated 1992).

This assay deals with Alginate lyase from Bacillus stearothermophilus. In words: Effects of chemicals commonly used in water cooling systems on alginate lyase activity. The assay is classed as biochemical. Particulars: for Inhibition (%) of Chemicals on Enzyme Activity: chemical at 10 mM final concentration, 16 hours incubation; for inhibition of the enzyme (in words): mineral content of cooling water. The procedure: Alginate lyase activity (increase in optical density at 230 nm) at 55° C. was monitored with sodium alginate as the substrate. Constant amounts of substrate, enzyme and MgCl2 (10 mM) were present in all reactions. Citrate-phosphate buffer was used between pH 5.0 and 6.5 and phosphate buffer was used between pH 6.0 and 8.0.
EDTA (ethylene diamine tetraacetate), NaCl, FeSO4, NaAlO2, Na2 MoO4, Zn, glutaraldehyde hydrazine and sodium nitrite were tested at the final concentration of 10 mM. Alginate lyase activity was monitored as described in Example 2 over 16 hours incubation.

In the case of `O=C(O)CN(CCN(CC(=O)O)CC(=O)O)CC(=O)O` [EDTA, ethylene diamine tetraacetate], the “Inhibition (%) of Chemicals on Enzyme Activity” value (shortened to “Inhibition (%) of Chemicals”) is recorded as 0%.
On the same count and under the same terms, for `O=S(=O)([O-])[O-].[Fe+2]` [FeSO4] the value was 0%; for `[Na+].[Na+].[O]=[Mo](=[O])([O-])[O-]` [Na2 MoO4], 0%; for `[Na+].[O]=[Al-]=[O]` [NaAlO2], 0%.
With `[Cl-].[Na+]` [NaCl], the “Inhibition (%) of Chemicals” value is recorded as 48.7% and the “inhibition of the enzyme (in words)” value was “partially inhibit”.
Consider `O=N[O-].[Na+]` [NaNO2, sodium nitrite], for which the “Inhibition (%) of Chemicals” value was 0%.
Regarding `[Zn]` [Zn], the “Inhibition (%) of Chemicals” value was 43.7% and the “inhibition of the enzyme (in words)” value is “partially inhibit”.
Turning to `O=CCCCC=O` [glutaraldehyde], the “Inhibition (%) of Chemicals” value worked out at 0%.
Still for that read-out and setting: as for `NN` [hydrazine], the figure is 0%.
